Experimental data as given in article PMC11062894, “Protein-based bandpass filters for controlling cellular signaling with chemical inputs” (Nature Chemical Biology, 2023).
“And” between values parts separate entries of the source, which are not always exact repeats. Equal entries are not always repeated.

Test system: GEMS receptors with CBPvene (Bcl2–LD3 and Bcl2high variants), STAT3-driven SEAP in HEK293T cells
Assay: GEMS SEAP reporter assay, CBPvene (Bcl2high, LD3-v and Bcl2-v variants) with venetoclax
Type: cell-based
[1] = CBPVene-v4-LD3v1, Venetoclax 10 nM
[2] = CBPVene-v4-LD3v1, Venetoclax 31.6 nM
[3] = CBPVene-v4-LD3v1, Venetoclax 100 nM
[4] = CBPVene-v4-LD3v1, Venetoclax 316 nM
[5] = CBPVene-v4-LD3v1, Venetoclax 1000 nM
[6] = CBPVene-v4-LD3v1, Venetoclax 3160 nM
[7] = CBPVene-v4-LD3v1, Venetoclax 10000 nM
[8] = CBPVene-v5, Venetoclax 10000 nM
[9] = CBPVene-v5-Bcl2v2, Venetoclax 1 nM
[10] = CBPVene-v5-Bcl2v2, Venetoclax 3.16 nM
[11] = CBPVene-v5-Bcl2v2, Venetoclax 10 nM
[12] = CBPVene-v5-Bcl2v2, Venetoclax 31.6 nM
[13] = CBPVene-v5-Bcl2v2, Venetoclax 316 nM

CC1(C)CCC(CN2CCN(c3ccc(C(=O)NS(=O)(=O)c4ccc(NCC5CCOCC5)c([N+](=O)[O-])c4)c(Oc4cnc5[nH]ccc5c4)c3)CC2)=C(c2ccc(Cl)cc2)C1 [Venetoclax]
Raw data Figure 5c [1]: 19.6376 and 23.1796 and 21.4266 | Raw data of Independent repeat of CBPVene-v4 vs CBPVene-v4-LD3v1 [1]: 12.5143 and 15.3613 and 14.2991 | Normalized data Figure 5c [2]: 33.2758 and 29.1991 and 22.5234 | Raw data Figure 5c [2]: 32.1154 and 36.1941 and 32.5835 | Raw data of Independent repeat of CBPVene-v4 vs CBPVene-v4-LD3v1 [2]: 19.3224 and 24.3766 and 24.2685 | Normalized data Figure 5c [3]: 89.5011 and 73.3407 and 58.8514 | Raw data Figure 5c [3]: 86.38 and 90.9103 and 85.1375 | Raw data of Independent repeat of CBPVene-v4 vs CBPVene-v4-LD3v1 [3]: 49.6855 and 59.8551 and 68.5591 | Normalized data Figure 5c [4]: 100 | Raw data Figure 5c [4]: 96.5128 and 123.956 and 144.665 | Raw data of Independent repeat of CBPVene-v4 vs CBPVene-v4-LD3v1 [4]: 75.2259 and 81.7396 and 83.8142 | Normalized data Figure 5c [5]: 92.1259 and 70.027 and 66.0891 | Raw data Figure 5c [5]: 88.9133 and 86.8028 and 95.608 | Raw data of Independent repeat of CBPVene-v4 vs CBPVene-v4-LD3v1 [5]: 55.2813 and 57.5308 and 55.9265 | Normalized data Figure 5c [6]: 41.115 and 38.8368 and 34.8585 | Raw data Figure 5c [6]: 39.6812 and 48.1406 and 50.4281 | Raw data of Independent repeat of CBPVene-v4 vs CBPVene-v4-LD3v1 [6]: 23.1338 and 27.3241 and 29.5684 | Normalized data Figure 5c [7]: 12.9494 and 11.4961 and 9.578 | Raw data Figure 5c [7]: 12.4978 and 14.2501 and 13.8554 | Raw data of Independent repeat of CBPVene-v4 vs CBPVene-v4-LD3v1 [7]: 8.884 and 10.4059 and 11.3993 | Raw data of Independent repeat of CBPVene-v5 vs CBPVene-v5-LD3v1 (CBPVene-v5, Venetoclax 0.01 nM): 29.6718 and 24.6839 and 26.501 | Normalized data Figure 5c (CBPVene-v5, Venetoclax 1 nM): 7.442 and 6.278 and 6.718 | Raw data Figure 5c (CBPVene-v5, Venetoclax 1 nM): 29.5956 and 26.0853 and 29.9849 | Normalized data Figure 5c (CBPVene-v5, Venetoclax 3.16 nM): 9.477 and 7.971 and 8.021 | Normalized data Figure 5f (CBPVene-v5, Venetoclax 3.16 nM): 5.255 and 4.508 and 3.901 | Raw data Figure 5c (CBPVene-v5, Venetoclax 3.16 nM): 37.6876 and 33.119 and 35.8015 | Raw data Figure 5f (CBPVene-v5, Venetoclax 3.16 nM): 30.3563 and 26.3908 and 26.6345 | Raw data of Independent repeat of CBPVene-v5 vs CBPVene-v5-LD3v1 (CBPVene-v5, Venetoclax 3.16 nM): 30.3563 and 26.3908 and 26.6345 | Normalized data Figure 5c (CBPVene-v5, Venetoclax 10 nM): 11.5779 and 11.0151 and 10.8723 | Normalized data Figure 5f (CBPVene-v5, Venetoclax 10 nM): 9.191 and 6.8128 and 6.589 | Raw data Figure 5c (CBPVene-v5, Venetoclax 10 nM): 46.0425 and 45.7651 and 48.5281 | Raw data Figure 5f (CBPVene-v5, Venetoclax 10 nM): 53.0904 and 39.8802 and 44.9895 | Raw data of Independent repeat of CBPVene-v5 vs CBPVene-v5-LD3v1 (CBPVene-v5, Venetoclax 10 nM): 53.0904 and 39.8802 and 44.9895 | Normalized data Figure 5c (CBPVene-v5, Venetoclax 31.6 nM): 35.6775 and 32.4284 and 35.7596 | Normalized data Figure 5f (CBPVene-v5, Venetoclax 31.6 nM): 4.7681 and 4.341 and 3.633 | Raw data Figure 5c (CBPVene-v5, Venetoclax 31.6 nM): 141.881 and 134.732 and 159.612 | Raw data Figure 5f (CBPVene-v5, Venetoclax 31.6 nM): 27.5418 and 25.4102 and 24.8086 | Raw data of Independent repeat of CBPVene-v5 vs CBPVene-v5-LD3v1 (CBPVene-v5, Venetoclax 31.6 nM): 27.5418 and 25.4102 and 24.8086 | Normalized data Figure 5c (CBPVene-v5, Venetoclax 100 nM): 85.9499 and 82.2485 and 75.1301 | Normalized data Figure 5f (CBPVene-v5, Venetoclax 100 nM): 23.389 and 18.2031 and 16.6277 | Raw data Figure 5c (CBPVene-v5, Venetoclax 100 nM): 341.802 | Raw data Figure 5f (CBPVene-v5, Venetoclax 100 nM): 135.101 | Raw data of Independent repeat of CBPVene-v5 vs CBPVene-v5-LD3v1 (CBPVene-v5, Venetoclax 100 nM): 135.101 and 106.556 and 113.538 | Normalized data Figure 5c (CBPVene-v5, Venetoclax 316 nM): 100 and 99.2625 | Normalized data Figure 5f (CBPVene-v5, Venetoclax 316 nM): 90.5991 and 73.5543 and 71.7832 | Raw data Figure 5c (CBPVene-v5, Venetoclax 316 nM): 397.676 and 415.475 and 443.055 | Raw data Figure 5f (CBPVene-v5, Venetoclax 316 nM): 523.324 and 430.565 and 490.151 | Raw data of Independent repeat of CBPVene-v5 vs CBPVene-v5-LD3v1 (CBPVene-v5, Venetoclax 316 nM): 523.324 and 430.565 and 490.151 | Normalized data Figure 5c (CBPVene-v5, Venetoclax 1000 nM): 94.7389 and 93.854 and 100 | Normalized data Figure 5f (CBPVene-v5, Venetoclax 1000 nM): 100 | Raw data Figure 5c (CBPVene-v5, Venetoclax 1000 nM): 376.754 and 389.94 and 446.347 | Raw data Figure 5f (CBPVene-v5, Venetoclax 1000 nM): 577.626 and 585.371 and 682.822 | Raw data of Independent repeat of CBPVene-v5 vs CBPVene-v5-LD3v1 (CBPVene-v5, Venetoclax 1000 nM): 585.371 and 682.822 | Normalized data Figure 5c (CBPVene-v5, Venetoclax 3160 nM): 78.0027 and 76.1858 and 76.8944 | Normalized data Figure 5f (CBPVene-v5, Venetoclax 3160 nM): 79.8503 and 79.8999 and 73.1753 | Raw data Figure 5c (CBPVene-v5, Venetoclax 3160 nM): 310.198 and 316.533 and 343.216 | Raw data Figure 5f (CBPVene-v5, Venetoclax 3160 nM): 461.236 and 467.711 and 499.656 | Raw data of Independent repeat of CBPVene-v5 vs CBPVene-v5-LD3v1 (CBPVene-v5, Venetoclax 3160 nM): 461.236 and 467.711 and 499.656 | Normalized data Figure 5c [8]: 34.0541 and 31.651 and 32.0007 | Normalized data Figure 5f [8]: 53.1633 and 46.1135 and 46.4962 | Raw data Figure 5c [8]: 135.425 and 131.502 and 142.834 | Raw data Figure 5f [8]: 307.085 and 269.935 and 317.486 | Normalized data Figure 5f [9]: 20.7725 and 19.0354 and 15.7869 | Raw data Figure 5f [9]: 37.9718 and 36.6065 and 35.2814 | Normalized data Figure 5f [10]: 20.3227 and 21.226 and 17.4104 | Raw data Figure 5f [10]: 37.1496 and 40.8191 and 38.9099 | Normalized data Figure 5f [11]: 19.4559 and 21.7686 and 18.6086 | Raw data Figure 5f [11]: 35.5651 and 41.8626 and 41.5876 | Normalized data Figure 5f [12]: 37.718 and 36.6086 and 30.2912 | Raw data Figure 5f [12]: 68.9479 and 70.401 and 67.6966 | Normalized data Figure 5f (CBPVene-v5-Bcl2v2, Venetoclax 100 nM): 81.9466 and 81.1265 and 85.7326 | Normalized data Figure 5f [13]: 100 | Raw data Figure 5f [13]: 182.798 and 192.307 and 223.486
